Experimental data: publication PMC12763877 (Journal of Experimental & Clinical Cancer Research : CR, 2025)

What was measured:
HUVEC = assay: DNA damage: γ-H2AX western blot and alkaline comet assay; format: cell-based, human
Description: (§1) Total protein was extracted using RIPA lysis buffer (Solarbio, China) supplemented with phenylmethylsulfonyl fluoride (PMSF; Thermo Fisher Scientific, USA), protease inhibitor cocktail (Roche, Switzerland), and phosphatase inhibitor cocktail (Roche, Switzerland). Protein concentration was determined using a BCA protein assay kit (Thermo Fisher Scientific, USA). Equal amounts of protein were separated by 10% SDS-polyacrylamide gel electrophoresis (SDS-PAGE) and transferred onto nitrocellulose (NC) membranes. […] All primary antibodies were purchased from Cell Signaling Technology (CST, USA), except for GAPDH, which was obtained from Proteintech (Wuhan, China). After washing, the membranes were incubated with HRP-conjugated goat anti-rabbit or anti-mouse IgG secondary antibodies (Biosharp, China) for 1 h at room temperature. Protein bands were visualized using an enhanced chemiluminescence (ECL) detection system and scanned using a chemiluminescence imaging system.

APLNR = molecular target: T1, APLNR (Homo sapiens, UniProt P35414); assay: cAMP assay in APLNR-HEK293T cells; format: cell-based; set-up: expressed in transfected cells; host or cells: HEK293; settings: forskolin 20 µM, Apelin-13 0.1 µM, compound 10^-4-100 µM
T1 sequence (P35414 1-380): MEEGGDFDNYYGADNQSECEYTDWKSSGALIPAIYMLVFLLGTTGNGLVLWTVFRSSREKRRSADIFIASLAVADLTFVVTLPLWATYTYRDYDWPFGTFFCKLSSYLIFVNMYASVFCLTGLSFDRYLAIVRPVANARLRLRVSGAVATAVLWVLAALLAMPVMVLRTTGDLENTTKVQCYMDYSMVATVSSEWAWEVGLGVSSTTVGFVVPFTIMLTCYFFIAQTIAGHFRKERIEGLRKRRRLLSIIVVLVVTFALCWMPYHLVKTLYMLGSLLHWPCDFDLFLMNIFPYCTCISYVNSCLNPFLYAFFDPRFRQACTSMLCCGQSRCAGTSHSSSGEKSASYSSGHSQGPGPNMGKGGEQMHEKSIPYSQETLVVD
Description: A suspension of APLNR-HEK293T cells was prepared and seeded into a 384-well OptiPlate™ 384 at a density of 1 × 10⁴ cells per well. The cells were cultured at 37℃ for 24 h. The culture medium was then removed, and 7.5 µL of serum-free medium containing 500 µM IBMX and the test compound was added to each well. The plate was incubated at 37℃ with 5% CO2 for 30 min. The concentration of cAMP was subsequently measured using the cAMP-Glo™ Assay Kit (Promega).
To characterize the molecular interactions between candesartan and APLNR, we performed molecular docking simulations using the APLNR crystal structure (PDB: 7SUS) as a template. […] In addition, previous studies have established that APLNR activation by its endogenous agonist Apelin-13 […] Gi protein signaling, thereby attenuating forskolin-induced cAMP accumulation. Then, using APLNR overexpression cell line (HEK293T-APLNR) and cAMP quantification assays to investigate the inhibitory activity of candesartan on APLNR.

[1] = system: STING signaling pathway in HUVEC; assay: Western blot of STING pathway proteins; format: cell-based, human; settings: 48 h
Description: as §1

With `CCOc1nc2cccc(C(=O)O)c2n1Cc1ccc(-c2ccccc2-c2nnn[nH]2)cc1` [Compound A-2, Candesartan] the “DNA fragmentation (comet assay)” value (HUVEC) was “increased DNA fragmentation”, the γ-H2AX expression (HUVEC; western blot, 48 h) was “dose-dependent increase” and the “cAMP accumulation (reversal of Apelin-13 effect)” value (APLNR) was “dose-dependently restored cAMP accumulation”. The “STING, p-TBK1/TBK1 and p-IRF3/IRF3 levels” value [1] was “dose-dependent upregulation”.
